# Results: the supplement of paper PMC10307832
# Key:
# Experiment in all cases: relative viability (nuclei count vs DMSO), 5 days (fraction); higher = more cells survive
# [1] = compound: CC1=C(C(=NN1)C)CC2=C(C3=C(S2)N(C(=O)N(C3=O)C)CC(C)C)C(=O)N4C[C@@H](CO4)O + NC(=O)Nc1cc(-c2cccc(F)c2)sc1C(=O)N[C@H]1CCCNC1 [AZD7762] (partner 0.2 µM)
# How it was run: (§1)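 Each reported value is a median over duplicate plates. It expresses relative viability: treated-well nuclei count divided by vehicle-well nuclei count. Lung cancer cell lines in 1536-well plates were dosed by pin tool a day after seeding, alone with one drug or with a fixed anchor-drug dose plus five library-drug doses (not always all listed) in √10 steps, and nuclei were counted after 5 days.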
# [2] = compound: CC1=C(C(=NN1)C)CC2=C(C3=C(S2)N(C(=O)N(C3=O)C)CC(C)C)C(=O)N4C[C@@H](CO4)O + CCNC(=O)c1noc(-c2cc(C(C)C)c(O)cc2O)c1-c1ccc(CN2CCOCC2)cc1 [Luminespib] (partner 0.01 µM)
# How it was run: as §1
# [3] = compound: CC1=C(C(=NN1)C)CC2=C(C3=C(S2)N(C(=O)N(C3=O)C)CC(C)C)C(=O)N4C[C@@H](CO4)O + CC(=O)c1c(C)c2cnc(Nc3ccc(N4CCNCC4)cn3)nc2n(C2CCCC2)c1=O [Palbociclib] (partner 0.5 µM)
# How it was run: as §1
# IDH-C35 + Palbociclib = compound: Cc1ccccc1C(C(=O)NC1CCCCC1)N(C(=O)Cn1ccnc1C)c1cccc(F)c1 [IDH-C35] + CC(=O)c1c(C)c2cnc(Nc3ccc(N4CCNCC4)cn3)nc2n(C2CCCC2)c1=O [Palbociclib] (partner 0.5 µM)
# How it was run: as §1
Cell Line,relative viability ([1]; first compound 0.0025 µM),relative viability ([1]; first compound 0.007906 µM),relative viability ([1]; first compound 0.025 µM),relative viability ([1]; first compound 0.07906 µM),relative viability ([1]; first compound 0.25 µM),relative viability ([2]; first compound 0.0025 µM),relative viability ([2]; first compound 0.007906 µM),relative viability ([2]; first compound 0.025 µM),relative viability ([2]; first compound 0.07906 µM),relative viability ([2]; first compound 0.25 µM),relative viability ([3]; first compound 0.0025 µM),relative viability ([3]; first compound 0.007906 µM),relative viability ([3]; first compound 0.025 µM),relative viability ([3]; first compound 0.07906 µM),relative viability ([3]; first compound 0.25 µM),relative viability (IDH-C35 + Palbociclib; first compound 0.08 µM),relative viability (IDH-C35 + Palbociclib; first compound 0.253 µM),relative viability (IDH-C35 + Palbociclib; first compound 0.8 µM),relative viability (IDH-C35 + Palbociclib; first compound 2.53 µM),relative viability (IDH-C35 + Palbociclib; first compound 8 µM)
NCI-H2342,0.414,0.505,0.345,0.373,0.388,0.768,0.79,0.855,0.784,0.602,0.514,0.562,0.442,0.502,0.593,0.578,0.535,0.475,0.526,0.662
EPLC-272H,0.252,0.21,0.225,0.144,0.231,0.738,0.197,0.235,0.498,0.417,0.322,0.315,0.319,0.324,0.331,0.294,0.347,0.353,,0.316
NCI-H1915,0.742,0.727,0.658,0.641,0.762,0.868,0.738,0.75,0.768,0.816,0.563,0.574,0.522,0.532,0.539,0.51,0.527,0.506,0.556,0.529
NCI-H322M,0.655,0.57,0.71,0.573,0.662,0.927,0.714,0.86,0.887,0.861,0.557,0.467,0.536,0.441,0.505,0.523,0.48,0.493,0.493,0.49
NCI-H522,0.836,1.05,0.546,0.565,0.624,1.29,1.22,1.11,0.644,0.586,1.08,1.02,0.852,0.521,0.618,1.07,1.07,1.01,0.944,0.99
NCI-H647,0.515,0.418,0.366,0.653,0.45,0.135,0.138,0.171,0.325,0.163,0.376,0.409,0.441,0.518,0.287,0.47,0.433,0.399,0.347,0.397
NCI-H2170,0.899,0.925,0.854,0.895,0.906,0.607,0.79,0.753,0.725,0.793,0.432,0.446,0.431,0.39,0.409,0.382,0.377,0.425,0.385,0.379
NCI-H2085,1.01,1.02,0.879,0.986,0.448,0.443,0.412,0.412,0.41,0.343,0.495,0.439,0.431,0.451,0.492,0.448,0.476,0.495,0.492,0.456
NCI-H727,0.6,0.842,0.575,0.623,0.652,0.309,0.378,0.387,0.369,0.387,0.697,0.655,0.676,0.682,0.679,0.671,0.663,0.673,0.66,0.574
NCI-H441,1.44,1.23,1.12,1.3,1.16,0.413,0.405,0.326,0.365,0.269,0.245,0.217,0.255,0.237,0.215,0.183,0.238,0.254,0.242,0.224
LOU-NH91,0.817,0.817,0.75,0.863,0.742,0.371,0.359,0.331,0.363,0.223,0.535,0.565,0.508,0.496,0.526,0.553,0.558,0.54,0.551,0.519
NCI-H3122,1.03,1.09,1.02,0.973,1.02,0.088,0.101,0.0902,0.0646,0.11,0.165,0.241,0.205,0.176,0.209,0.183,0.178,0.186,0.187,0.182
NCI-H460,0.726,0.65,0.562,0.551,0.596,0.0312,0.0506,0.037,0.0359,0.028,0.181,0.199,0.204,0.226,0.217,0.23,0.231,0.194,0.233,0.12
NCI-H650,1.03,0.961,0.893,0.936,0.913,0.84,0.798,0.72,0.829,0.951,0.345,0.353,0.274,0.334,0.347,0.311,0.343,0.339,,0.283
NCI-H1793,0.281,0.339,0.203,0.279,0.24,0.608,0.17,0.208,0.164,0.187,0.3,0.36,0.324,0.313,0.3,0.273,0.303,0.356,0.327,0.322
NCI-H1734,0.53,0.581,0.342,0.402,0.381,0.297,0.184,0.173,0.184,0.167,0.328,0.396,0.349,0.307,0.322,0.359,0.33,0.352,0.325,0.305
LXF-289,1.06,1.13,1.07,1.2,1.22,0.774,0.684,0.56,0.613,0.783,0.525,0.605,0.574,0.586,0.613,0.574,0.584,0.591,0.604,0.583
H3255,0.929,0.927,0.755,0.85,0.936,0.953,1.04,0.861,0.944,0.887,0.32,0.326,0.269,0.296,0.315,0.315,0.281,0.337,0.305,0.326
201T,0.67,0.673,0.573,0.586,0.677,1.04,1.1,1.05,1.04,1.05,0.358,0.355,0.369,0.327,0.367,0.361,0.375,0.346,0.351,0.343
NCI-H2126,1.06,1.08,0.943,0.867,1.05,0.959,0.845,0.878,0.892,0.951,0.356,0.335,0.368,0.327,0.369,0.349,0.362,0.333,0.351,0.359
HOP-62,0.668,0.589,0.646,0.615,0.851,0.892,1.01,0.809,0.824,0.986,0.409,0.418,0.461,0.404,0.574,0.377,0.435,0.426,0.419,0.394
CAL-12T,0.632,0.578,0.647,0.6,0.566,0.393,0.895,0.315,0.303,0.404,0.481,0.413,0.484,0.574,0.418,0.524,0.575,0.414,0.525,0.408
NCI-H1755,0.465,0.434,0.425,0.407,0.471,0.592,0.511,0.524,0.356,0.438,0.452,0.462,0.412,0.424,0.45,0.463,0.412,0.438,0.466,0.401
